# Source: patent publication EP1209147A1, “CARBOXYLIC ACID DERIVATIVES AND ADHESION MOLECULE INHIBITORS CONTAINING THE SAME AS THE ACTIVE INGREDIENT” (TORAY INDUSTRIES, INC., priority 1999, dated 2001)
# How the values were obtained:
# [1] = test system: Mouse Peritonitis Induced by Ragweed Pollen; assay: Mouse peritonitis induced by ragweed pollen; type: in vivo, BLAB/c mouse; settings: 400 mg/kg intravenously, totally 5 times; 48 hours after induction
# Method: Ragweed pollen extract 1:100 (TORII PHARMACEUTICAL) was diluted by 10-fold with physiological saline, and the resulting solution was used as an antigen for sensitization. This antigen solution was subcutaneously administered to each BLAB/c mouse (female, 6 weeks old, JAPAN CHARLES RIVER) in an amount of 100 µl each on DAY-0 and DAY-1, and 200 µl each on DAY-6, DAY-8 and DAY-14 to obtain sensitized mice, DAY-0 being the day of the initial sensitization. On DAY-20, 200 µl of the antigen solution was intraperitoneally administered to induce peritonitis. After 48 hours from the induction, each mouse was sacrificed by bleeding to death, and 3 ml of heparin-containing PBS(-) was intraperitoneally injected. Celiotomy was performed and washing solution of the abdominal cavity was recovered. The leukocytes contained in the recovered washing solution were subjected to site spin and a smear specimen was prepared. After staining the specimen by May-Giemsa staining method, the leukocytes were grouped and counted under microscope to determine the number of eosinophils. Compound No. 140 used as the test compound was dissolved in physiological saline and the solution was intravenously administered totally 5 times, i.e., at 16 hours before induction, at the time of induction, at 8 hours, 24 hours and 32 hours after induction, at a dose of 400 mg/kg per each time. […]
# Mouse Asthma Model = assay: Mouse asthma model (OVA, intranasal induction); type: in vivo, BLAB/c mouse; settings: 750 µg per time intranasally; BALF on DAY-28; Fig. 2
# Method: Equivolume of 10% KAI(SO4)2·12H2O (WAKO) solution and ovalbumin (hereinafter "OVA") solution (500 µg/ml) were mixed, and 10N NaOH was slowly added to neutralize the solution to obtain Al(OH)3 gel (OVA 500 µg/ml) on which OVA was adsorbed. The obtained product was intraperitoneally administered to each BLAB/c mouse (female, 7 weeks old, JAPAN CHARLES RIVER) at a dose of 200 µl (100 µg) per mouse on DAY-0 and DAY-14. Thereafter, on DAY-14, 50 µl of 2 mg/ml solution of OVA in physiological saline was intranasally administered, and on DAY-25, 26 and 27, 50 µl of 1 mg/ml solution of OVA in physiologically saline was intranasally administered to induce inflammation. Compound No. 140 used as the test compound was dissolved in physiological saline and the solution was intranasally administered at 30 minutes before induction with OVA, at 8 hours after induction, and on DAY-25, 26 and 27, twice a day, at a dose of 750 µg per time. To the background group and control group, physiological saline was intranasally administered.
# On DAY-28, bronchus of each mouse was incised and the bronchus and alveoli were washed (BAL) 4 times with 0.7 ml of physiological saline. […] After staining the specimen by May-Giemsa staining method, the leukocytes were grouped and counted under microscope to determine the number of eosinophils. […]
# [2] = test system: Guinea Pig Rhinitis Model; assay: Guinea pig rhinitis model (OVA, respiratory resistance); type: in vivo, Harley guinea pig; settings: 10 mg intranasally before induction by the antigen; 10 minutes to 8 hours after induction; Fig. 3
# Method: Cyclophosphamide (SIGMA) was dissolved in physiological saline to a concentration of 25 mg/ml, and the solution was intraperitoneally administered to each Harley guinea pig (male, 2 weeks old, JAPAN SLC) at a dose of 50 mg/kg on DAY-0. Equivolume of OVA (2.0 mg/ml) dissolved in physiological saline and 12 ml of aqueous 9% AlK(SO4)2 solution were mixed, and then 10% aqueous Na2CO3 solution was added thereto to adjust the pH to 6.5, thereby obtaining Al(OH)3 gel (OVA 500 µg/ml) on which OVA was adsorbed. The obtained product was centrifuged and the precipitated gel was washed with PBS(-), followed by addition of Bordetella pertussis cell suspension (WAKO PURE CHEMICALS). The OVA concentration was adjusted to 100 µg/ml, and 1 ml (100 µg) of the resulting product was intraperitoneally administered to each guinea pig. On DAY-22, each mice was made to inhale 1% OVA dissolved in physiological saline for 10 minutes. […] The increase in the respiratory resistance from 10 minutes after the induction to 8 hours after the induction was measured by a respiratory resistance-measuring apparatus (body plethysmograph method; SHIZUME MEDICAL), and the result was expressed in terms of the ratio of the measured resistance based on the respiratory resistance measured before the induction by the antigen. […]
smiles,measurement,setting,value
"CC(C)(C)CC(=O)N[C@@H](CSSC[C@H](NC(=O)CC(C)(C)C)C(=O)O)C(=O)O [Example 140, 3-((2(R)-carboxy-2(R)-(3,3-dimethylbutanoylamino)ethyl)disulfanyl)-2(R)-(3,3-dimethylbutanoylamino)propionic acid]","inhibition rate of accumulation of leukocytes, especially eosinophils, to abdominal cavity",[1],31.1%
same,"accumulation of leukocytes, especially eosinophils, in the lung",Mouse Asthma Model,inhibits
same,increase in the respiratory resistance,[2],inhibits
